Values quoted from earlier work in patent US20140322356A1, “CTC BIOMARKER ASSAY TO COMBAT BREAST CANCER BRAIN METASTASIS” (Baylor College of Medicine, priority 2011, published 2014).

What was measured:
heparanase (HPSE) = molecular target: T1, heparanase (HPSE) (Homo sapiens, UniProt Q9Y251); settings: statement from literature, no value given
T1 sequence (Q9Y251 36-543): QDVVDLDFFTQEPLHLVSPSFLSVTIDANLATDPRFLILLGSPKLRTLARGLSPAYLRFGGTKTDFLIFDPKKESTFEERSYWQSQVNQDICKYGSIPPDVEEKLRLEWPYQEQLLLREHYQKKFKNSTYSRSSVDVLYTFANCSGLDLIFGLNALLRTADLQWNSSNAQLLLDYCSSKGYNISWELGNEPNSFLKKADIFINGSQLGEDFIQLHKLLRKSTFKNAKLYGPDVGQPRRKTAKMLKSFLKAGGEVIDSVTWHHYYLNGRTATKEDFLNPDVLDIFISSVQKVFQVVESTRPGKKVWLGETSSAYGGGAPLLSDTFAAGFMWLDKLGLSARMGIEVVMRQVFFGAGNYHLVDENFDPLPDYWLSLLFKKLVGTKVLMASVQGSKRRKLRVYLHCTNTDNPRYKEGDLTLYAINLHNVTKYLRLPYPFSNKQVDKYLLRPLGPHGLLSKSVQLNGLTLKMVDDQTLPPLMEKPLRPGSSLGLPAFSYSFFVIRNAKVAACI

[1] = test system: MDA-MB-435 carcinoma cells; settings: MDA-MB-435 cells selected for metastatic growth in the brain

inhibition of heparanase (heparanase (HPSE)) | Compound | tumor cell migration and invasion in vitro [1]
inhibitor of HPSE | Heparin | –
– | C[C@H](NC(=O)Cc1cc(F)cc(F)c1)C(=O)N[C@H](C(=O)OC(C)(C)C)c1ccccc1 [DAPT] | inhibited
